# pKd: −log10 of the molar value. *1 amine or outer side, *2 acyl side, *3 side chain or, on linkers, in order; H or OH if unused. Where a SMILES comes first, the peptide text is derived from it. Where no end group is shown, it is not given here. [ ]: non-standard residue; d: D form. Phe(3,4-(OMe)2) = COc1ccc(C[C@H](N)C(=O)O)cc1OC; Phe(3,4-F2) = N[C@@H](Cc1ccc(F)c(F)c1)C(=O)O; Ala(4-thiazolyl) = N[C@@H](Cc1cscn1)C(=O)O; X1 = O=C(C1(c2ccccc2)CCN([*:1])CC1)[*:2]; Phe(4-NH2) = Nc1ccc(C[C@H](N)C(=O)O)cc1; Met(O2) = CS(=O)(=O)CC[C@H](N)C(=O)O; Ala(cPr) = N[C@@H](CC1CC1)C(=O)O; Hyp = O=C(O)[C@@H]1C[C@@H](O)CN1; hArg = N=C(N)NCCCC[C@H](N)C(=O)O; Cha = N[C@@H](CC1CCCCC1)C(=O)O; 4Amb = NCc1ccc(C(=O)O)cc1; β3hS = N[C@@H](CO)CC(=O)O; Orn = NCCC[C@H](N)C(=O)O; βAla = NCCC(=O)O
# Assays:
# 12ca5 = assay: BLI binding to an unrelated (off-target) protein; details: BLI, 12ca5 at 500 nM
# Method: Peptide binding validation was carried out using the ForteBio Octet RED96 system. The chamber temperature was kept constant at 30 °C with a plate agitation speed at 1000 rpm. Briefly, streptavidin (SA)-coated biosensor tips were dipped into 200 μL of 1.0–2.0 μM biotinylated peptide solution (in a kinetic buffer (K.B.): 1 × PBS with 0.1% BSA and 0.02% Tween-20) for peptides immobilization. Once loaded with peptides, the tips were then moved into solutions containing various concentrations (1000, 500, 250, 125, and 62.5 nM) of recombinant ACE2 protein (purchased from Sino Biological, Catalog number 10108-H08H) in the K.B. to obtain the association curve. After the 180 s association step, the tips were moved back into the K.B. to obtain the dissociation curve. Buffer-only and protein-only conditions (concentration at 1000 nM) were used as references for background subtraction. The association and dissociation curves were fitted with the ForteBio Biosystems Data Analysis Software under 5 experimental conditions (n = 5, global fitting algorithm, binding model 1:1) to calculate the apparent dissociation constant (KD). […]
# 4.4 The binding of ABP noncanonical peptides to an unrelated protein
# N6, and N8 to an unrelated protein, 12ca5, measured by BLI at concentration
# (§1) (1 picture or pasted object on this page, not shown here)
# ACE2 [1] = molecular target: T1, ACE2 (Homo sapiens, UniProt Q9BYF1); assay: BLI binding competition of known ACE2 binders (AngII, MLN-4760) on the ABP-ACE2 interaction; set-up: Soluble ACE2 (5 µL, 0.62 mg/mL) was mixed with 50 µL normal human serum; details: immobilized biotinylated peptide; for inhibition of ABP binding to ACE2 by AngII: 500 nM ACE2 + 5 uM AngII (10-fold excess); for inhibition of ABP binding to ACE2 by MLN-4760: 500 nM ACE2 + 5 uM MLN-4760 (10-fold excess)
# T1 sequence (Q9BYF1 18-740 limits assumed): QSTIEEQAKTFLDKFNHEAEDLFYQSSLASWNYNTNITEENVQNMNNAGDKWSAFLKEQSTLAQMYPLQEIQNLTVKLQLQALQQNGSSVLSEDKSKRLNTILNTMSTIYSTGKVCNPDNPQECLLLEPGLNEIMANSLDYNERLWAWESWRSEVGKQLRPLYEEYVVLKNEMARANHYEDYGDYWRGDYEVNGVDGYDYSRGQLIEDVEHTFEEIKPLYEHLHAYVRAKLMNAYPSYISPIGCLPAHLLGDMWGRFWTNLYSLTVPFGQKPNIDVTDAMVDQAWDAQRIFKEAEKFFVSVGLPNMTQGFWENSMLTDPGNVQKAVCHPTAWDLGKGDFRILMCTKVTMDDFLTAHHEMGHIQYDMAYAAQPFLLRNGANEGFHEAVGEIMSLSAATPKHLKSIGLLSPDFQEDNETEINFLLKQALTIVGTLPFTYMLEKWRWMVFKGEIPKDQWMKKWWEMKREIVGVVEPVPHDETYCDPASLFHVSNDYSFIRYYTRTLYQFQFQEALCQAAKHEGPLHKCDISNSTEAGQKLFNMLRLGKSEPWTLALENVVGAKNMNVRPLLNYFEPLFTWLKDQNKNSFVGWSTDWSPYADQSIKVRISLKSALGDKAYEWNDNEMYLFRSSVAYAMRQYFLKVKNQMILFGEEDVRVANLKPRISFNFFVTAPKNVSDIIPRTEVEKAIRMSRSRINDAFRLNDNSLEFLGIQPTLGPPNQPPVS
# ACE2 [2] = molecular target: T1, ACE2; assay: Bio-layer interferometry (BLI) binding of immobilized biotinylated peptides to ACE2; details: BLI; for pKd: biotinylated peptide on streptavidin tips, ACE2 1000-62.5 nM, 30 °C, global 1:1 fit, read-out: KD (dissociation constant) to ACE2; for binding to ACE2 by BLI (in words): scrambled peptides tested at 250 nM ACE2
# Method: Peptide binding validation was carried out using the ForteBio Octet RED96 system. The chamber temperature was kept constant at 30 °C with a plate agitation speed at 1000 rpm. Briefly, streptavidin (SA)-coated biosensor tips were dipped into 200 μL of 1.0–2.0 μM biotinylated peptide solution (in a kinetic buffer (K.B.): 1 × PBS with 0.1% BSA and 0.02% Tween-20) for peptides immobilization. Once loaded with peptides, the tips were then moved into solutions containing various concentrations (1000, 500, 250, 125, and 62.5 nM) of recombinant ACE2 protein (purchased from Sino Biological, Catalog number 10108-H08H) in the K.B. to obtain the association curve. After the 180 s association step, the tips were moved back into the K.B. to obtain the dissociation curve. Buffer-only and protein-only conditions (concentration at 1000 nM) were used as references for background subtraction. The association and dissociation curves were fitted with the ForteBio Biosystems Data Analysis Software under 5 experimental conditions (n = 5, global fitting algorithm, binding model 1:1) to calculate the apparent dissociation constant (KD).
# Supplementary Note 4: Binding affinity measurements
# 4.1 BLI raw binding data of noncanonical peptides […]
# affinity was reported using the kinetic fitting results ( KD is calculated by divide the […]
# off rate by on rate). […] The ACE2
# as §1
# 4.2 BLI raw binding data of canonical peptides
# Supplementary Fig. 20. The BLI binding curve fitting (red lines) of ABP C1-C4 and ABP C7-C9 from Library 1 AS-MS against ACE2.
# ACE2 concentration was 250 nM.
# ACE2 [3] = molecular target: T1, ACE2; assay: ELISA detection of ACE2 coated from 1 x PBS; assay type: binding; details: ACE2 in 1 x PBS 10 pM-100 nM coated; biotinylated peptide 100 nM; streptavidin-HRP, TMB, A450
# Method: However, we observed a decreased detection sensitivity presumably due to the decreased amount of ACE2 being immobilized on the plate with many other serum proteins present. […] The plate was incubated with ABP N1 or control peptide, followed by streptavidin-HRP and TMB substrate. Absorbance was measured at 450 nm. The experiment was performed in technical triplicates (n = 3). Each data point, the mean signal as a bar, and error bars from experimental standard deviation, and statistical significance calculated with the unpaired Student’s t-test are shown. A serial dilution of soluble ACE2 was coated onto an ELISA plate (96-well format) overnight at 4 °C. The next day, the plate was blocked with 5% BSA in 1 × PBS supplement with 0.05% Tween-20 (PBST, pH 7.4) for 2–3 h at room temperature. […] Control groups are biotinylated peptide ABP N8 and PBST alone. The supernatant was then removed, and the wells were washed with PBST (3× 200 µL). Streptavidin-HRP conjugate in PBST (0.25 µg/mL, 100 µL) was added to each well and incubated for 30 min at room temperature. The plate was PBST-washed again (3 × 200 µL) before color development with 100 µL 1-Step™ Ultra TMB-ELISA Substrate Solution (Thermo Fisher, Catalog number 34028). After 10 min, the reaction was quenched with 2.0 M sulfuric acid (100 µL). Finally, the absorbance at 450 nm was measured on a microplate reader (BioTek) for all treated wells. […]
binding to ACE2 by BLI (in words) (ACE2 [2]),Compound,binding to unrelated protein 12ca5 (in words) (12ca5),other results
–,"COc1ccc(C[C@H](NC(=O)[C@H](Cc2ccc(F)c(F)c2)NC(=O)[C@@H]2C[C@@H](O)CN2C(=O)[C@H]2CCCN2C(=O)[C@H]2CCCN2C(=O)CNC(=O)[C@H](CC2CC2)NC(=O)[C@H](Cc2cscn2)NC(=O)[C@@H](N)CC2CC2)C(=O)N[C@@H](Cc2cscn2)C(=O)NCCC(=O)NCc2ccc(C(=O)N[C@@H](CCCCN)C(N)=O)cc2)cc1OC [ABP N4] (H-[Ala(cPr)][Ala(4-thiazolyl)][Ala(cPr)]G[dP][dP][Hyp][Phe(3,4-F2)][Phe(3,4-(OMe)2)][Ala(4-thiazolyl)][βAla][4Amb]K-NH2)",minimal binding,binding to unrelated protein 12ca5 (in words) (12ca5; listed as N4): No apparent binding; inhibition of ABP binding to ACE2 by AngII (ACE2 [1]): not inhibited; inhibition of ABP binding to ACE2 by MLN-4760 (ACE2 [1]): completely inhibited
–,LQRGVFGFPYRVK-NH2 [ABP C7],–,pKd (ACE2 [2]): 7.59
no binding,LQAKPVPQFWPFK-NH2 [ABP C5],–,–
no binding,"CS(=O)(=O)CC[C@H](NC(=O)[C@H]1CCCN1C(=O)[C@H](CCC(N)=O)NC(=O)CNC(=O)[C@H](Cc1ccc(F)c(F)c1)NC(=O)[C@H](Cc1cscn1)NC(=O)[C@@H](N)CC1CC1)C(=O)N[C@@H](CC1CCCCC1)C(=O)N[C@@H](CCC(N)=O)C(=O)N[C@@H](Cc1cscn1)C(=O)NCCC(=O)N[C@@H](Cc1cscn1)C(=O)N[C@@H](CCCCN)C(N)=O [ABP N5] (H-[Ala(cPr)][Ala(4-thiazolyl)][Phe(3,4-F2)]GQ[dP][Met(O2)][Cha]Q[Ala(4-thiazolyl)][βAla][Ala(4-thiazolyl)]K-NH2; N-terminus assumed)",No apparent binding,–
–,"CS(=O)(=O)CC[C@H](NC(=O)[C@H](Cc1ccc(F)c(F)c1)NC(=O)[C@H](CCCN)NC(=O)[C@@H](N)CC1CC1)C(=O)N1C[C@H](O)C[C@H]1C(=O)N[C@@H](Cc1cscn1)C(=O)N1CCC[C@@H]1C(=O)N[C@@H](CCC(N)=O)C(=O)N[C@@H](Cc1ccc(F)c(F)c1)C(=O)N[C@@H](CC1CCCCC1)C(=O)N[C@@H](CC1CCCCC1)C(=O)NCCC(=O)N[C@@H](CCCCN)C(N)=O [ABP N6] (H-[Ala(cPr)][Orn][Phe(3,4-F2)][Met(O2)][Hyp][Ala(4-thiazolyl)][dP]Q[Phe(3,4-F2)][Cha][Cha][βAla]K-NH2)",minimal binding,binding to unrelated protein 12ca5 (in words) (12ca5; listed as N6): No apparent binding; inhibition of ABP binding to ACE2 by AngII (ACE2 [1]): not inhibited; inhibition of ABP binding to ACE2 by MLN-4760 (ACE2 [1]): not inhibited
No apparent binding,"CS(=O)(=O)CC[C@H](N)C(=O)N[C@@H](CCCN)C(=O)N[C@@H](CC1CCCCC1)C(=O)N[C@@H](Cc1ccc(F)c(F)c1)C(=O)N[C@@H](Cc1ccc(F)c(F)c1)C(=O)N[C@@H](CO)CC(=O)NCC(=O)N[C@@H](Cc1cscn1)C(=O)N[C@@H](Cc1cscn1)C(=O)N[C@@H](CC1CC1)C(=O)N[C@@H](CCC(N)=O)C(=O)N[C@@H](CCCN)C(=O)N[C@@H](CCCCN)C(N)=O [Scrm N1.2] (H-[Met(O2)][Orn][Cha][Phe(3,4-F2)][Phe(3,4-F2)][β3hS]G[Ala(4-thiazolyl)][Ala(4-thiazolyl)][Ala(cPr)]Q[Orn]K-NH2; N-terminus assumed)",–,–
–,LQWHPAYWFMQVK-NH2 [ABP C8],–,pKd (ACE2 [2]): 7.44
No apparent binding,"CS(=O)(=O)CC[C@H](NC(=O)C[C@H](CO)NC(=O)[C@H](CC1CC1)NC(=O)[C@@H](N)Cc1cscn1)C(=O)N[C@@H](CC1CCCCC1)C(=O)N[C@@H](Cc1cscn1)C(=O)N[C@@H](CCCN)C(=O)N[C@@H](Cc1ccc(F)c(F)c1)C(=O)N[C@@H](CCCN)C(=O)N[C@@H](CCC(N)=O)C(=O)NCC(=O)N[C@@H](Cc1ccc(N)cc1)C(=O)N[C@@H](CCCCN)C(N)=O [Scrm N1.1] (H-[Ala(4-thiazolyl)][Ala(cPr)][β3hS][Met(O2)][Cha][Ala(4-thiazolyl)][Orn][Phe(3,4-F2)][Orn]QG[Phe(4-NH2)]K-NH2; N-terminus assumed)",–,–
no binding,LQKFLGERFPGWK-NH2 [ABP C6],–,–
–,LHKQFGWHWFGFK-NH2 [ABP C3],–,pKd (ACE2 [2]): 7.46

Compound,binding to ACE2 by BLI (in words) (ACE2 [2]),binding to unrelated protein 12ca5 (in words) (12ca5),other results
"CS(=O)(=O)CC[C@H](NC(=O)[C@H](Cc1ccc(F)c(F)c1)NC(=O)[C@H](CCS(C)(=O)=O)NC(=O)[C@H](CC1CCCCC1)NC(=O)[C@H](CC(=O)O)NC(=O)C1(c2ccccc2)CCN(C(=O)CCNC(=O)CNC(=O)[C@H]2CCCN2C(=O)[C@H](CCCCNC(=N)N)NC(=O)[C@H](Cc2cscn2)NC(=O)[C@@H](N)CC2CC2)CC1)C(=O)N[C@@H](CCCCN)C(N)=O [ABP N8] (H-[Ala(cPr)][Ala(4-thiazolyl)][hArg][dP]G[βAla][X1]D[Cha][Met(O2)][Phe(3,4-F2)][Met(O2)]K-NH2; N-terminus assumed)",no binding,No apparent binding,ELISA detection of ACE2 (in words) (ACE2 [3]): no binding

# Reference: paper PMC9814530, “Rapid de novo discovery of peptidomimetic affinity reagents for human angiotensin converting enzyme 2” (Communications Chemistry, 2022)
